# Patent publication US20140322076A1, “ANTIMICROBIAL COMPOSITION” (priority 2011, published 2014)
# Key:
# Type in all cases: cell-based
# [1] = test system: Escherichia coli (10536 strain); experiment: Antimicrobial efficacy, 15 seconds contact suspension assay (Examples 1 and 3); details: for MBC (Minimum Biocidal Concentration): lowest concentration with complete kill after 15 seconds contact, active alone, upper boundary to the MBC; for NMBS (mean bacterial survival) / NMBS: contact time 15 seconds; for NMBS (mean bacterial survival): phenol and terpineol concentration (% w/v) as given per example, 0 = complete kill, triplicate; for NMBS: Example 3, gamma-terpineol, concentrations (% w/v) as given per example
# Procedure: The efficacies of antimicrobial agents can be usefully compared by determining the Minimum Biocidal Concentration (MBC). The MBC is defined as the lowest absolute concentration of the particular active that provides complete kill (zero bacterial growth).
# ΣFBC=FBC(component 1)+FBC(component 2)+FBC(component 3)+ . . . etc
# such that • ΣFBC≧1 corresponds to additive or antagonistic bactericidal activity • ΣFBC<1 corresponds to synergistic bactericidal activity
# Antimicrobial efficacy is tested against a representative pathogenic bacterial organism, Gram negative Escherichia coli. Concentrations of actives are expressed in terms of the percentage weight/volume (% w/v) throughout Example 1.
# An overnight culture of Escherichia coli (10536 strain) was prepared in 50 ml total volume of TSB broth, grown for ca. 18 hrs at 37° C. and shaken at 150 rpm. 1 ml of this overnight E. coli culture was transferred to 50 ml of fresh TSB broth and incubated at 37° C. at 150 rpm for ca. 4 hours. This culture was separated into equal volumes and centrifuged at 4000 rpm for 15 minutes, washed with sterile saline (0.85% NaCl), centrifuged once more and re-suspended in saline to give a final concentration of 0.8 OD620 equivalent to about 10^8 cells per millilitre for this particular organism. Here, OD620 indicates the absorbance of a sample in a cuvette of 1.0 cm path length at a wavelength of 620 nm. This bacterial stock was used for assaying against antimicrobial actives (in triplicate).
# The following assay describes the testing of 8 materials using 6 dilutions across half of a 96-well micro titre plate (MTP). Using this approach it is possible to assay 16 actives (without replicates) with one full dilution plate, replicating this set up in two halves of the plate columns, 1-6 and 7-12.
# 1M solutions of the test actives were prepared in dimethylsulphoxide (DMSO).
# Aliquots (270 μl) of the materials at 1.11 times the final concentration were dispensed into the wells of the MTP along one column (A1-H1). This MTP was labelled as the “Screening plate”.
# In another MTP, labelled as the “Dilution plate”, 270 μl of D/E neutralising solution from DIFCO Composition was added to column 1. The composition of the neutralising solution was as follows: pancreatic digest of casein, 5.0 g/L; Yeast Extract, 2.5 g/L; Dextrose, 10 g/L, sodium thioglycollate, 1.0 g/L, sodium thiosulphate, 6.0 g/L; sodium bisulphite, 2.5 g/L; Polysorbate 80, 5.0 g/L; lecithin 7.0 g/L; bromocresol purple, 0.02 g/L with a pH in the range 7.6±0.2.
# 270 μl of tryptone diluent solution was added to all the remaining wells of the Dilution MTP (columns 2-6).
# Bacterial stock (30 μl) was then added to the prepared 270 μl of the solution of actives in the Screening Plate and mixed, using a multichannel pipette with 8 tips to aspirate and dispense the same volume of bacterial stock in parallel to 8 wells in rows A-H. After a contact time of 15 seconds, the mixtures were quenched by transferring 30 μl volumes of the mixtures into the 270 μl D/E neutralising solution in the prepared dilution plate, using aspiration to mix. After exactly 5 minutes in the D/E neutralising solution, 30 μl volumes were transferred from column 1 to column 2 of the Dilution MTP and mixed, before transferring further 30 μl volumes from column 2 into column 3. This process was repeated serially diluting the bacteria across the plate to column 6.
# 30 μl volumes from each well in the Dilution MTP were transferred onto pre-labelled segment of Tryptone Soya Agar (TSA) plates starting from the lowest bacterial concentration (highest dilution, column 6) to the highest bacterial concentration (column 1). The TSA plates were allowed to stand for ca. 2 hours so that the 30 μl inocula spots could dry and the plates were then inverted and incubated overnight at 37° C. before enumerating the bacterial colonies at the labelled dilutions to determine the effects of the actives on bacterial growth.
# [2] = test system: Escherichia coli (E. coli - ATCC #10536); experiment: Automated assessment of efficacy in surfactant base (Example 4); details: for MBC: in 2.85% sodium cocoyl glycinate + 1.85% sodium lauroamphoacetate solution at pH 10; for 15 second bactericidal efficacy (in words): in combination with alpha-terpineol at concentrations lower than their MBC, surfactant formulation
# Procedure: In these examples, the efficacy of combinations of isopropylmethylphenols and terpineol were tested in a surfactant cleansing formulation comprising 2.85% sodium cocoyl glycinate and 1.85% sodium lauroamphoacetate. This corresponds to a 50% in use dilution with water of a typical neat formulation containing 5.7% cocoyl glycinate and 3.7% % sodium lauroamphoacetate during hand washing. Solutions were prepared such that the concentrations of the surfactant components and test actives were 1.1 times the final desired concentration in order to allow for dilution with the bacterial inoculum in the test. The solutions were manually adjusted to pH 10.0 by dropwise addition of sodium hydroxide solution, as measured with a pH meter at ambient temperature. Solutions of the isopropylmethylphenols and/or terpineols were prepared at a maximum of 24 hours before testing. The same terpineol was used as in Example 1.
# The efficacy of the combinations of the present invention was determined against the same bacterium as in Example 1, Escherichia coli (E. coli—ATCC #10536), at a concentration of approximately 1×10^8 bacteria per mL.
# Tests were conducted using standard microtiter plate assays using an automated liquid handling system. 270 μl of the surfactant test solution was pipetted into each well of the microtitre plate (Nunc F Gamma Irradiated 96F untreated microtitre plates of clear polystyrene) and 30 μl of the bacterial suspension was then added. After exactly 15 seconds of bacterial exposure, a 30 μl volume of bacterial cells was withdrawn and transferred to 270 μl of D/E quench solution. After 5 minutes in the D/E quench, the optical density (OD) was measured for each plate in turn at two specific wavelengths (450 nm and 590 nm). These provide a dual check of antimicrobial activity, as the OD450 reading is specific for the yellow colour of D/E quench when bacterial growth is observed, whereas OD590 is specific for the initial purple colour of the D/E quench which is retained if no bacterial growth is observed. After the time zero OD measurements, plates were then incubated at 37° C. overnight (16 hours) before repeating the OD measurements. Delta OD values were calculated by subtracting […] at time=16 hours.
# Bacterial growth is observed as an increase in OD450 and a decrease in OD590. To identify antibacterially efficacious systems (those preventing appreciable bacterial growth after incubation), the following threshold changes in OD readings have been adopted: if (1). OD450 increases by less than 0.2 absorbance unit (AU) on incubation and (2). OD590 decreases by less than 0.35 AU on incubation. Conversely, where OD450 increases by more than 0.1 AU and OD590 decreases by more than 0.1 AU after incubation, corresponding to a colour shift from purple to yellow, the test system allows bacterial growth and is not deemed efficacious. Four replicate measurements in the same plate have been made for each test system. The number of replicate wells showing either bacterial growth or no growth is also readily assessed by eye by following the colour change. Thymol and terpineol were tested both alone and in combination for comparison purposes.
# In each case, binary mixtures were assessed in the weight to weight ratio isopropylmethylphenol to alpha terpineol of 1:2.5.
# [3] = test system: Escherichia coli (E. coli - ATCC #10536); experiment: High resolution MBC synergy assay in phosphate buffer containing 35% dipropylene glycol (Example 2); details: for ΣFBC: calculated from Ca/MBCA + Cb/MBCB; for MBC of the component alone (MBCA, MBCB): complete kill in 15 seconds, phosphate buffer, 35% DPG
# Procedure: The materials were sourced in the same way as for Example 1. Synergy tests were conducted using standard microtiter plate assays with phosphate buffer containing 35% dipropylene glycol (DPG). […] The MBC plate was inoculated one column at a time with the test microorganism. An aliquot of the inoculated well was transferred at 15 seconds to a plate containing a neutralizing agent (D/E Neutralizing Broth), mixed and held for 5 minutes before being transferred to a growth plate containing trypticase soy broth (TSB). The TSB plate was incubated at 37° C. and read for the presence/absence of growth at 24 hours. […] This microorganism is representative of natural contaminants in many consumer and industrial applications.
structure (smiles),measurement,setting,value
Cc1cc(O)ccc1C(C)C [4-isopropyl-3-methylphenol],MBC (Minimum Biocidal Concentration),[1],0.075 % w/v
same,MBC,[2],>0.2 % w/v
same,15 second bactericidal efficacy (in words),[2],complete kill in all 4 replicates
CC1=CCC(C(C)(C)O)CC1 (stereo not drawn) [alpha-terpineol],reduction of the terpineol concentration required for complete kill,[1]; 0.4% alone to […] in combination with […] w/v 4-isopropyl-3-methylphenol or 3-isopropyl-5-methylphenol,2.7 fold
same,ΣFBC,[3],1.00
same,"MBC of the component alone (MBCA, MBCB)",[3],0.6 weight %
same,MBC,[2],>0.5 % w/v
"CC1=CCC(O)(C(C)C)CC1 (stereo not shown) [1:7, terpineol]",NMBS (mean bacterial survival),[1],7 log CFU/ml
CC(C)=C1CCC(C)(O)CC1 (stereo not shown) [gamma-terpineol],MBC (Minimum Biocidal Concentration),[1],0.3 % w/v
"Cc1cc(O)ccc1C(C)C [1:13, 4-isopropyl-3-methylphenol]",NMBS (mean bacterial survival),[1],7.6 log CFU/ml
"CC(C)=C1CCC(C)(O)CC1 (stereo not shown) [3:4, gamma-terpineol]",NMBS,[1],7.84 log CFU/ml
"Cc1ccc(C(C)C)c(O)c1 [thymol, thymol (2-isopropyl-5-methylphenol)]",MBC (Minimum Biocidal Concentration),[1],0.05 % w/v
same,MBC,[2],>0.2 % w/v
"CC(C)=C1CCC(C)(O)CC1 (stereo not shown) [3:1, gamma-terpineol]",NMBS,[1],0 log CFU/ml
Cc1cc(O)cc(C(C)C)c1 [3-isopropyl-5-methylphenol],MBC (Minimum Biocidal Concentration),[1],0.05 % w/v
same,ΣFBC,[3],1.00
same,"MBC of the component alone (MBCA, MBCB)",[3],0.5 weight %
same,MBC,[2],>0.2 % w/v
same,15 second bactericidal efficacy (in words),[2],complete kill in all 4 replicates
